Data reported in patent publication US9359405B2, “Antagonists of the interleukin-1 receptor” (Phlogo ApS, priority 2011, dated 2016).
No end group written: not given here.

What was measured:
[1] = target: T1, IL1RI (Homo sapiens, UniProt P14778); test: SPR (BiaCore) binding to immobilized IL1RI ectodomain; conditions: 25° C., pH 7.4
T1 construct: The recombinant protein comprising the whole extracellular part of IIL1RI was immobilised on the surface of a CM5 sensor chip
T1 sequence (P14778 18-336 limits assumed): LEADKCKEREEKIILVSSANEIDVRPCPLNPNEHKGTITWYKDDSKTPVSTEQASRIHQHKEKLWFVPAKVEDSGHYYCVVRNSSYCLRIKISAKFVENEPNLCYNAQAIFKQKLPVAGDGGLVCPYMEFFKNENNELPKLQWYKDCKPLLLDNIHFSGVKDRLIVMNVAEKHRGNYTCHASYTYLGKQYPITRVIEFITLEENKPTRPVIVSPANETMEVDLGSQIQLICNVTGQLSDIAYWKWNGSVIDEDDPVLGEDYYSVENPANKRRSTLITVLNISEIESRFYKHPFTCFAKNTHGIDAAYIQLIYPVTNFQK
Experimental: Binding analysis was performed using a BiaCore 2000 Instrument (BiaCore AB, Uppsala, Sweden) at 25° C. using 10 mM sodium phosphate (pH 7.4), 150 mM NaCl as running buffer. The flow-rate was 5 μl/min. Data were analysed by nonlinear curve fitting using the manufacturer's software. The recombinant protein comprising the whole extracellular part of IIL1RI was immobilised on the surface of a CM5 sensor chip by means of electrostatic interactions, and the peptide and the IL1β and IL1Ra proteins were injected at various concentrations. The curves corresponding to the difference between binding to peptides and a blank chip were used for analysis.

[2] = test system: cerebellar granule neurons; test: Neurite outgrowth in primary cerebellar granule neurons; format: cell-based, rat; conditions: 24 h, primary cerebellar neurons
Experimental: Cerebellar granular neurons (CGN) were prepared from 3 or 7 postnatal (P) day Wistar rats (Charles River, Sulzfeld, Germany or Taconic, Ejby, Denmark). Cerebella were cleared of meninges and blood vessels, roughly homogenized by chopping, and trypsinized with trypsin from Sigma-Aldrich (Brøndby, Denmark). The neurons were washed in the presence of DNAse 1 and soybean trypsin inhibitor (Sigma-Aldrich), and cellular debris was pelleted by centrifugation before plating. CGNs were plated at a density of 10,000 cells/well onto uncoated eight-well Lab-Tek chamber slides (NUNC, Slangerup, Denmark) in Neurobasal-A medium supplemented with 0.4% (w/v) BSA. Peptides or proteins at various concentrations were added to the medium immediately after plating, and cells were maintained at 37° C. and 5% CO2 for 24 h. Cultures then were fixed, blocked and incubated with polyclonal rabbit antibody against rat GAP-43 (Chemicon, Temecula, Calif., USA) followed by incubation with secondary Alexa Fluor488 goat anti-rabbit antibody (Molecular Probes, Eugene, Oreg., USA) as previously described (Neiiendam et al., 2004). The immunostained cultures were all recorded by computer-assisted fluorescence microscopy using a Nikon Diaphot inverted microscope (Nikon, Japan) equipped with a Nikon Plane 20× objective. Images were captured with a charge-coupled device video camera (Grundig Electronics, Nurnberg, Germany) using the software package Prima developed at the Protein Laboratory (University of Copenhagen, Copenhagen, Denmark). The length of neuronal processes per cell was estimated using the software package Process Length developed at the Protein Laboratory (Ronn et al. 2000). For estimation of neurite outgrowth, at least 200±20 cells were processed for each group in each individual experiment.

[3] = test system: cerebellar granule neurons; test: Survival assay, cerebellar granule neurons, low-potassium apoptosis; format: cell-based, rat; conditions: 5 mM KCl
Experimental: Survival assay: Primary cultures of CGN were plated at a density of 100,000 cells/cm2 on poly-L-lysine coated 8-well permanox slides in Neurobasal-A medium (Gibco BRL) supplemented with 2% (v/v) B27, 0.5% (v/v) glutamax, 100 units/mL penicillin, 100 µg/mL streptomycin and KCl, making the final concentration of KCl in the medium 40 mM. 24 hours after plating, cytosine-b-D-arabinofuranoside (Ara-C; Sigma-Aldrich) was added to a final concentration of 10 μM to avoid proliferation of glial cells, after which the neurons were allowed to differentiate for a further 6 days at 37° C. Apoptotic cell death was induced by washing twice and changing the medium to Basal Medium Eagle (BME; Gibco BRL) supplemented with 1% (v/v) glutamine, 100 U/mL penicillin and 100 µg/mL streptomycin, 3.5 g D-glucose/L and 1% (v/v) sodium pyruvate (Gibco BRL) together with various concentrations of peptide. Thereby the concentration of potassium in the cultures was reduced to 5 mM KCl (Ditlevsen et al., 2003). Two days after induction of apoptosis, the cells were fixed with 4% (v/v) formaldehyde and stained with Hoechst 33258 as described for the survival assay employing hippocampal neurons.

## SGRKSSKMQA [Ilantafin]
[1]
  affinity of interaction with immobilized ectodomain of IL1RI: within the same order of magnitude as the binding affinities of IL1β and IL1Ra to IL1RI
[2]
  neurite outgrowth: induce neurite outgrowth in primary cerebellar neurons in a dose-dependent manner
[3]
  survival effect compared with IGF-1: comparable with the effect of the neuronal survival factor IGF-1
[3]; 2 days
  neuronal survival / cell death (apoptosis) induced by lowering potassium: reduces neuronal cell death (apoptosis)
